Measured values published in patent publication US20120122860A1, “SOLID FORMS OF SULFONAMIDES AND AMINO ACIDS” (Plexxikon, Inc., priority 2009, published 2012).
pIC50: −log10 of the molar value.

What was measured:
[1] = molecular target: T1, TEC (Homo sapiens, UniProt P42680); assay: Kinase activity assay, TEC
T1 sequence (P42680 1-631): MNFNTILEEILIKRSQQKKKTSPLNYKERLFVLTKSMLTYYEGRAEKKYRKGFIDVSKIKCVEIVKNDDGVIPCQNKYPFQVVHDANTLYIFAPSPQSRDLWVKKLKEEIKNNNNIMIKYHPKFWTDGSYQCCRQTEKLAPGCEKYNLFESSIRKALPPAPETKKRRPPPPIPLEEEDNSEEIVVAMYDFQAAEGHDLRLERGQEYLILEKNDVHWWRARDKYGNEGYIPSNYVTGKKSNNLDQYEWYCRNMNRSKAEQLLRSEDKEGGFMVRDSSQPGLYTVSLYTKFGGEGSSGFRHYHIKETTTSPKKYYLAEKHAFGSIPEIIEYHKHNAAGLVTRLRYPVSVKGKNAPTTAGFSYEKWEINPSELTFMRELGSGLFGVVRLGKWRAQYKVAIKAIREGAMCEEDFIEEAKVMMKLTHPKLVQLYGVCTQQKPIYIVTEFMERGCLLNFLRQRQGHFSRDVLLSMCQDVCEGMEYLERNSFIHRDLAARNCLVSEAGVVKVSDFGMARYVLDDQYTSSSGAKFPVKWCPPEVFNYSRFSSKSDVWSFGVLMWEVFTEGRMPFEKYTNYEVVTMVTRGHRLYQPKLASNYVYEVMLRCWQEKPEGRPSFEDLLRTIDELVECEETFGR

[2] = molecular target: B-Raf (Homo sapiens, UniProt P15056); assay: Kinase activity assay, B-Raf; assay type: biochemical; details: read-out: activity toward kinase B-Raf, IC50
[3] = molecular target: B-Raf V600E (Homo sapiens, UniProt P15056, V600E); assay: Kinase activity assay, B-Raf V600E; assay type: biochemical; details: read-out: activity toward kinase B-Raf V600E, IC50
[4] = molecular target: C-Raf (Homo sapiens, UniProt P04049); assay: Kinase activity assay, C-Raf
[5] = molecular target: T2, A-Raf (Homo sapiens, UniProt P10398); assay: Kinase activity assay, A-Raf
T2 sequence (P10398 1-606): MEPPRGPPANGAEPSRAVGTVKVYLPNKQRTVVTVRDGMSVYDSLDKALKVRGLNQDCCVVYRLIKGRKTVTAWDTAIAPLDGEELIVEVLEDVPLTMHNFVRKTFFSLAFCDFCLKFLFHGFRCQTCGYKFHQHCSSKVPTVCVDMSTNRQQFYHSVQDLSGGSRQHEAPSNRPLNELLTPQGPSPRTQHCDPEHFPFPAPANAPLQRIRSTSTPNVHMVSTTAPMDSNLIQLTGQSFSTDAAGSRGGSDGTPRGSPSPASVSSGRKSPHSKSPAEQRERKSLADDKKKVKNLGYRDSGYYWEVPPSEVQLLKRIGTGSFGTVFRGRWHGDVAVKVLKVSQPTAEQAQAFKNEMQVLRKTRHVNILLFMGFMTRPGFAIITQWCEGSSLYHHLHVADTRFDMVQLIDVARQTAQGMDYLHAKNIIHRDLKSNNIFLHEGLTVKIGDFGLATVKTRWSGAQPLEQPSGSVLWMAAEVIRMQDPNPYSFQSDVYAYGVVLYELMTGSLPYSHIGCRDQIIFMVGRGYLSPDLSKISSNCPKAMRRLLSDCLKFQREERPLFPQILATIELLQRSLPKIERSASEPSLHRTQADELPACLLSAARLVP

[6] = molecular target: Kit (Homo sapiens, UniProt P10721); assay: Kinase activity assay, Kit
[7] = molecular target: MAP4K4 (Homo sapiens, UniProt O95819); assay: Kinase activity assay, MAP4K4
[8] = molecular target: Kdr (Homo sapiens, UniProt P35968); assay: Kinase activity assay, Kdr
[9] = molecular target: Fms (Homo sapiens, UniProt P07333); assay: Kinase activity assay, Fms
[10] = molecular target: Src (Homo sapiens, UniProt P12931); assay: Kinase activity assay, Src

Measured: pIC50

Chain of Fms (P07333 20-972): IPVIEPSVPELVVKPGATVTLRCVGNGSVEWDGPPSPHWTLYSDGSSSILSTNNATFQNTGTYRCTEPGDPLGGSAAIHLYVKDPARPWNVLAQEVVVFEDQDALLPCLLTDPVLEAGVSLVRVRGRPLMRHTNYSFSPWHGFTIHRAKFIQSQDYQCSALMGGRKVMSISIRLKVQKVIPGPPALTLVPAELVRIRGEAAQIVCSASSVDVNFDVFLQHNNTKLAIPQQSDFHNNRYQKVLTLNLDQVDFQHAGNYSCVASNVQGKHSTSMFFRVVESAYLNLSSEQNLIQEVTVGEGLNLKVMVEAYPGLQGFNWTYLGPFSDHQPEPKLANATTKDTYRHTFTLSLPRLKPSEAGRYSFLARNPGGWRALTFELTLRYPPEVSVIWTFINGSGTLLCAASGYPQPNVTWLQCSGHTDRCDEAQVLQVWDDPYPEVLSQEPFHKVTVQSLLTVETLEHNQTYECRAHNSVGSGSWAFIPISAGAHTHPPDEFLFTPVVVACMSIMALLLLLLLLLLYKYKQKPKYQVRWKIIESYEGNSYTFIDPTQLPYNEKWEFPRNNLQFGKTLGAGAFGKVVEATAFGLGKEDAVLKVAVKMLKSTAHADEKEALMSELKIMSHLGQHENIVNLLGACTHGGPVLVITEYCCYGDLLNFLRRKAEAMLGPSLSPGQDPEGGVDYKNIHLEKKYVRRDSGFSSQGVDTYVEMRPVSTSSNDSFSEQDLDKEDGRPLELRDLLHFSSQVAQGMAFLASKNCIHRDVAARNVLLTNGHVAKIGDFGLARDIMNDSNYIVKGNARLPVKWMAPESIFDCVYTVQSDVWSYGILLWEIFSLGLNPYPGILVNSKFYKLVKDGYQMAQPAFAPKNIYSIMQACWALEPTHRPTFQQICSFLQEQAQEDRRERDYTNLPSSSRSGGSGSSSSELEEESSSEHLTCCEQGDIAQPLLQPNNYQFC
Chain of C-Raf (P04049 whole entry): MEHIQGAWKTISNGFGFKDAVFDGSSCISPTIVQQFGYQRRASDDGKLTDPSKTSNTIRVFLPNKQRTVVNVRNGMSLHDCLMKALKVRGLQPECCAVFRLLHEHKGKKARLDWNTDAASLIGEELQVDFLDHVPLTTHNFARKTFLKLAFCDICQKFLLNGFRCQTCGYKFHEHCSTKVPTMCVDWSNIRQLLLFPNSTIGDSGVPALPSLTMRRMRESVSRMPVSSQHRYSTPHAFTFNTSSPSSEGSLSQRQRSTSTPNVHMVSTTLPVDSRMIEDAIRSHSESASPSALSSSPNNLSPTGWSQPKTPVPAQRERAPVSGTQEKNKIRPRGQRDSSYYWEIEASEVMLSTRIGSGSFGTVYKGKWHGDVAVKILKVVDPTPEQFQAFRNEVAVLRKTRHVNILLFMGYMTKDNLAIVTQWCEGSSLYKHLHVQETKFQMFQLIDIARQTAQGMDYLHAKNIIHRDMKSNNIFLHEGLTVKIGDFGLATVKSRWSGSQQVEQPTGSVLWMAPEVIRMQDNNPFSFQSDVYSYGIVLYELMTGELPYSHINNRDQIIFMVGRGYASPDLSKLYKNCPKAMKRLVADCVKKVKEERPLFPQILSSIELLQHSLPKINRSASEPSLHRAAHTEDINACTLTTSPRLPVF
Chain of B-Raf V600E (P15056 whole entry V600E): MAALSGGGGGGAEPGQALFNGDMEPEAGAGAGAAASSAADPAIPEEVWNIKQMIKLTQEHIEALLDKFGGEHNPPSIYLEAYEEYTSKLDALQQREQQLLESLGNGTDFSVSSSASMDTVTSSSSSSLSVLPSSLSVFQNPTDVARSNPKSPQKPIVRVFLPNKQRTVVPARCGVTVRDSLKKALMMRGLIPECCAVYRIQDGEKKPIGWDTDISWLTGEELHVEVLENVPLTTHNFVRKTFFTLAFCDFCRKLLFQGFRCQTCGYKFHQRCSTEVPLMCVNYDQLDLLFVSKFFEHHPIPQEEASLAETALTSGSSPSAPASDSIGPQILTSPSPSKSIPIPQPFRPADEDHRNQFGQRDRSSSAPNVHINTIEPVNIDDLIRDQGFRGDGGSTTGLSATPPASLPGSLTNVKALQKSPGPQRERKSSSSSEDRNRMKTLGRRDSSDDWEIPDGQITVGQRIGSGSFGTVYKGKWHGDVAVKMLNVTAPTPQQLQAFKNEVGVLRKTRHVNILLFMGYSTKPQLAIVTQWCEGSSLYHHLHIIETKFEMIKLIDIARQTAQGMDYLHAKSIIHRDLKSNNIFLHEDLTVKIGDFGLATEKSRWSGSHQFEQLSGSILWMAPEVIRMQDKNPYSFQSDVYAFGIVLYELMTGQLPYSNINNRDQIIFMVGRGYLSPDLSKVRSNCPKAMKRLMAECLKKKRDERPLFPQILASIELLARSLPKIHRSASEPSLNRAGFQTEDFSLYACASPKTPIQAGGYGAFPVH
Chain of B-Raf (P15056 whole entry): as the sequence (P15056 whole entry V600E) above, with E600V counted along it
Chain of Kit (P10721 26-976): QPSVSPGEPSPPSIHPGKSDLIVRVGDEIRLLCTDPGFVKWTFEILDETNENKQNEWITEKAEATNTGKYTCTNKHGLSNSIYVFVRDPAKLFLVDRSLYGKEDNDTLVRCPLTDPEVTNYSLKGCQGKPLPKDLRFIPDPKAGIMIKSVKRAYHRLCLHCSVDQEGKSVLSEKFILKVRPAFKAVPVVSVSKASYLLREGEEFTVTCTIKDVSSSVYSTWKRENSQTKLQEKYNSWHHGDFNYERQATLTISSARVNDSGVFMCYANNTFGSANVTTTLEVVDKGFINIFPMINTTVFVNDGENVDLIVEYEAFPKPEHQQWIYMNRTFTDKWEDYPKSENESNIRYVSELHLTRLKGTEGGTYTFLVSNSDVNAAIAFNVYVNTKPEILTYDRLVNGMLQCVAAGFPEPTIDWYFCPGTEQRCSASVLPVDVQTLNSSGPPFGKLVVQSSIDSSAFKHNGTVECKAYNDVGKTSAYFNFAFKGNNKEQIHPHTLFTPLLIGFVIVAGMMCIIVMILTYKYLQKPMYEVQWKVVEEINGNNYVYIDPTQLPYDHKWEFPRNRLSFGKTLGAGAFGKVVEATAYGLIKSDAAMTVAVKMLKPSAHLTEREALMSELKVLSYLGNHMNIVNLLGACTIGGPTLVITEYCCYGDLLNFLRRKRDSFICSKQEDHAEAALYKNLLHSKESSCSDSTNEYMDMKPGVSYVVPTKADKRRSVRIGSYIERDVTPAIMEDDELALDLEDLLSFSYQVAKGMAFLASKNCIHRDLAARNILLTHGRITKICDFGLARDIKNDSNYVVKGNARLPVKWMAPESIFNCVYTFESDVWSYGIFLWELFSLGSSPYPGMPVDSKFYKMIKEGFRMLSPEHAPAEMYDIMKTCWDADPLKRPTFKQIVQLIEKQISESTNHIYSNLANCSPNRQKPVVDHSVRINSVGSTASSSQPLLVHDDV
Chain of Kdr (P35968 20-1356): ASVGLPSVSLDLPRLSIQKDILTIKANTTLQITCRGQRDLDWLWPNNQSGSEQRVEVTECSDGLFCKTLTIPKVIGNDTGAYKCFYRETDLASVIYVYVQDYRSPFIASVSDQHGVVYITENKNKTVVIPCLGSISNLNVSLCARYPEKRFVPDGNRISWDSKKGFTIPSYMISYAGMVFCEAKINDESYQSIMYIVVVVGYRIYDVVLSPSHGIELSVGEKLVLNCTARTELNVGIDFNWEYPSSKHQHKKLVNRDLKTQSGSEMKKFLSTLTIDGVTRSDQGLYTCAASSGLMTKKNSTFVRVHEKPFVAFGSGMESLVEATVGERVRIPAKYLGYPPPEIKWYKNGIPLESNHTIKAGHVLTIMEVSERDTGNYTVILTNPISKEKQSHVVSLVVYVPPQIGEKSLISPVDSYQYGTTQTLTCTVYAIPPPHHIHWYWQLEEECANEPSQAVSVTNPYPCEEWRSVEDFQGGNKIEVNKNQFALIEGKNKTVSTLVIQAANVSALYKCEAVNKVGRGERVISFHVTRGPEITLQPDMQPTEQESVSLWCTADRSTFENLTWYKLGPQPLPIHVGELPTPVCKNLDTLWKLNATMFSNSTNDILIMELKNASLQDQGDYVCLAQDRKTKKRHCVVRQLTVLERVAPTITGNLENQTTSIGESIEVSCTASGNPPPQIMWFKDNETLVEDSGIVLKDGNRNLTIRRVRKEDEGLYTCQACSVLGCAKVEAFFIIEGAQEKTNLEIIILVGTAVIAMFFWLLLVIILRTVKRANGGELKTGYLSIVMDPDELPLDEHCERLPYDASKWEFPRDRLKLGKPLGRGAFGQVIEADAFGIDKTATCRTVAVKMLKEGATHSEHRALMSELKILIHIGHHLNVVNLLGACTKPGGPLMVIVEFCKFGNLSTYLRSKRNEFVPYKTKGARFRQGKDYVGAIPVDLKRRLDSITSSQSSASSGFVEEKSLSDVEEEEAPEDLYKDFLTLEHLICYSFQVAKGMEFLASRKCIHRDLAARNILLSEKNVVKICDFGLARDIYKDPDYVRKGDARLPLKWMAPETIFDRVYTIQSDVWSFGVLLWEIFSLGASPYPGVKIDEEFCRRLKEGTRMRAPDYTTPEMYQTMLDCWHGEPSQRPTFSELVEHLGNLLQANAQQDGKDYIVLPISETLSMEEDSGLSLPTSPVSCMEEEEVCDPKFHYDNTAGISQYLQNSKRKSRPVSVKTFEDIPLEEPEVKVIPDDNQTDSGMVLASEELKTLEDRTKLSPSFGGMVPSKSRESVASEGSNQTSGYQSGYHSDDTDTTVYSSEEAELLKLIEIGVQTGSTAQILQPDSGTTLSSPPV

N#Cc1cnc2[nH]cc(C(=O)c3c(F)ccc(NS(=O)(=O)c4cccnc4)c3F)c2c1 [P-2072, Pyridine-3-sulfonic acid [3-(5-cyano-1H-pyrrolo[2,3-b]pyridine-3-carbonyl)-2,4-difluoro-phenyl]-amide]
≥ 5.00: [1] | [2] | [3] | [4]

CCCS(=O)(=O)Nc1ccc(F)c(C(=O)c2c[nH]c3ncc(-c4ccc(OCCCN5CCOCC5)nc4)cc23)c1F [P-2236, Propane-1-sulfonic acid (2,4-difluoro-3-{5-[6-(3-morpholin-4-yl-propoxy)-pyridin-3-yl]-1H-pyrrolo[2,3-b]pyridine-3-carbonyl}-phenyl)-amide]
not listed: [1]
≥ 5.00: all other assays above

COc1cnc2[nH]cc(C(=O)c3c(F)ccc(NS(=O)(=O)c4cc(F)ccc4F)c3F)c2c1 [P-2010, N-[2,4-Difluoro-3-(5-methoxy-1H-pyrrolo[2,3-b]pyridine-3-carbonyl)-phenyl]-2,5-difluoro-benzenesulfonamide]
not listed: [1]
≥ 5.00: all other assays above

O=C(c1c(F)ccc(NS(=O)(=O)c2cc(F)ccc2F)c1F)c1c[nH]c2ncc(Cl)cc12 [P-2002, N-[3-(5-Chloro-1H-pyrrolo[2,3-b]pyridine-3-carbonyl)-2,4-difluoro-phenyl]-2,5-difluoro-benzenesulfonamide]
not listed: [1]
≥ 5.00: all other assays above

N#Cc1cnc2[nH]cc(C(=O)c3cccc(NS(=O)(=O)C4CCCC4)c3F)c2c1 [P-2417, Cyclopentanesulfonic acid [3-(5-cyano-1H-pyrrolo[2,3-b]pyridine-3-carbonyl)-2-fluoro-phenyl]-amide]
≥ 5.00: [1] | [2] | [3] | [8] | [4]

Cc1cnc2[nH]cc(C(=O)c3c(F)ccc(NS(=O)(=O)c4cc(F)ccc4F)c3F)c2c1 [P-2015, N-[2,4-Difluoro-3-(5-methyl-1H-pyrrolo[2,3-b]pyridine-3-carbonyl)-phenyl]-2,5-difluoro-benzenesulfonamide]
not listed: [1]
≥ 5.00: all other assays above

CCN(CC)S(=O)(=O)Nc1ccc(F)c(C(=O)c2c[nH]c3nccc(OC)c23)c1F [P-2378, N,N-diethylamino-sulfonic acid [2,4-difluoro-3-(4-methoxy-1H-pyrrolo[2,3-b]pyridine-3-carbonyl)-phenyl]-amide]
≥ 5.00: [1] | [3] | [8] | [10]

O=C(c1c(F)ccc(NS(=O)(=O)c2ccccc2F)c1F)c1c[nH]c2nccc(Cl)c12 [P-2017, N-[3-(4-Chloro-1H-pyrrolo[2,3-b]pyridine-3-carbonyl)-2,4-difluoro-phenyl]-2-fluoro-benzenesulfonamide]
not listed: [1]
≥ 5.00: all other assays above

CCCS(=O)(=O)Nc1ccc(F)c(C(=O)c2c[nH]c3ncc(-c4ccc(OCCN5CCOCC5)nc4)cc23)c1F [P-2232, Propane-1-sulfonic acid (2,4-difluoro-3-{5-[6-(2-morpholin-4-yl-ethoxy)-pyridin-3-yl]-1H-pyrrolo[2,3-b]pyridine-3-carbonyl}-phenyl)-amide]
not listed: [1]
≥ 5.00: all other assays above

CCCS(=O)(=O)Nc1ccc(F)c(C(=O)c2c[nH]c3ncc(-c4ccc(OCCN5CCCC5)nc4)cc23)c1F [P-2233, Propane-1-sulfonic acid (2,4-difluoro-3-{5-[6-(2-pyrrolidin-1-yl-ethoxy)-pyridin-3-yl]-1H-pyrrolo[2,3-b]pyridine-3-carbonyl}-phenyl)-amide]
not listed: [1]
≥ 5.00: all other assays above

CCCc1ccc(-c2cnc3[nH]cc(C(=O)c4c(F)ccc(NS(=O)(=O)CCC)c4F)c3c2)cn1 [P-2224, Propane-1-sulfonic acid {2,4-difluoro-3-[5-(6-propyl-pyridin-3-yl)-1H-pyrrolo[2,3-b]pyridine-3-carbonyl]-phenyl}-amide]
not listed: [1]
≥ 5.00: all other assays above

CC(C)S(=O)(=O)Nc1ccc(F)c(C(=O)c2c[nH]c3ncc(C#N)cc23)c1F [P-2282, Propane-2-sulfonic acid [3-(5-cyano-1H-pyrrolo[2,3-b]pyridine-3-carbonyl)-2,4-difluoro-phenyl]-amide]
≥ 5.00: [1] | [6] | [2] | [3] | [4]

CC(C)CS(=O)(=O)Nc1ccc(F)c(C(=O)c2c[nH]c3ncc(C#N)cc23)c1F [P-2307, 2-Methyl-propane-1-sulfonic acid [3-(5-cyano-1H-pyrrolo[2,3-b]pyridine-3-carbonyl)-2,4-difluoro-phenyl]-amide]
≥ 5.00: [1] | [6] | [2] | [3] | [4]
